Reference: ChEMBL document CHEMBL1201862, “PubChem BioAssay data set” (2004)
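All cell lines were grown in 96-well plates and treated with compound for 48 hours. The concentration for 50% growth inhibition is given as GI50.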 Calls of active or inactive are those of the source. Rule as the data show it: active = GI50 up to about 1.1 µM and inactive = higher.

Key:
Test in all cases: NCI-60 cell line screen, 48 h
BT-549 = test system: BT-549
M14 = test system: M14
MCF7 = test system: MCF7
MDA-MB-435 = test system: MDA-MB-435
MDA-N = test system: MDA-N
786-0 = test system: 786-0
DMS-114 = test system: DMS-114
LXFL 529 = test system: LXFL 529
RXF 631 = test system: RXF 631

Row | Compound | GI50 (BT-549) | GI50 (M14) | GI50 (MCF7) | GI50 (MDA-MB-435) | GI50 (MDA-N) | GI50 (786-0) | GI50 (DMS-114) | GI50 (LXFL 529) | GI50 (RXF 631)
1 | CC(=O)Nc1ccc2[nH]c(C(=O)N3CC(CCl)c4c3cc(N)c3ccccc43)cc2c1 (stereo not given) | < 0.0312 µM (active) | 0.0167 µM (active) | 0.0107 µM (active) | 0.0147 µM (active) | 0.0177 µM (active) | – | – | – | –
2 | Nc1nc(-c2cccc([N+](=O)[O-])c2)cc(-c2cc(-c3cccc([N+](=O)[O-])c3)nc(N)n2)n1 | > 100 µM (inactive) | > 100 µM (inactive) | > 100 µM (inactive) | > 100 µM (inactive) | > 100 µM (inactive) | > 100 µM (inactive) | – | – | –
3 | CCOC(=O)NC(=O)c1cn(CCN(CCO)C(=O)NCCCCCCNC(=O)N(CCO)CCn2cc(C(=O)NC(=O)OCC)c(=O)[nH]c2=O)c(=O)[nH]c1=O | – | – | > 100 µM (inactive) | – | – | – | > 100 µM (inactive) | – | –
4 | CCCCCCCCCOCC(COP(=O)([O-])OCC[N+](C)(C)C)OC (stereo not given) | – | – | 68.7 µM (inactive) | – | – | – | > 100 µM (inactive) | – | –
5 | C=CCn1c(=O)c(Br)nn(CCOCP(=O)(OCC)OCC)c1=O | – | > 100 µM (inactive) | > 100 µM (inactive) | > 100 µM (inactive) | > 100 µM (inactive) | – | – | – | –
6 | NC(Cc1ccccc1)C(=O)N[C@H]1c2ccsc2/C(=N/O)[C@H]1O (stereo not given in full) | > 100 µM (inactive) | > 100 µM (inactive) | > 100 µM (inactive) | > 100 µM (inactive) | > 100 µM (inactive) | – | – | – | –
7 | NS(=O)(=O)C1CCCCC1C(=O)NNC(=O)C(=O)Nc1nnc(S)[nH]1 (stereo not given) | – | > 100 µM (inactive) | – | – | – | – | > 100 µM (inactive) | > 100 µM (inactive) | –
8 | CC(C)NC(=O)OCc1c2c(n(C)c1COC(=O)NC(C)C)-c1ccccc1CC2 | – | – | 10.5 µM (inactive) | – | – | – | 5.43 µM (inactive) | – | –
9 | COc1ccc(C(=O)Cc2ccc(Br)cc2)cc1OC | – | > 100 µM (inactive) | – | – | – | – | > 100 µM (inactive) | > 100 µM (inactive) | 57.4 µM (inactive)
10 | C/C(=N/NC(=S)N1CCCCCC1)c1ccccc1O | 8.97 µM (inactive) | 1.49 µM (inactive) | 3.31 µM (inactive) | 5.82 µM (inactive) | 13.6 µM (inactive) | 1.89 µM (inactive) | – | – | –
11 | S=c1sc2c(s1)SCCCCSCCCCSc1sc(=S)sc1SCCCCSCCCCS2 | > 100 µM (inactive) | > 100 µM (inactive) | > 100 µM (inactive) | > 100 µM (inactive) | > 100 µM (inactive) | 68.5 µM (inactive) | – | – | –
12 | CO/N=C1/c2sccc2[C@H](NC(=O)C(F)(F)F)[C@@H]1O | > 100 µM (inactive) | > 100 µM (inactive) | > 100 µM (inactive) | > 100 µM (inactive) | > 100 µM (inactive) | – | – | – | –
13 | Cc1ccc2c(=O)c3ccccc3sc2c1 | – | > 100 µM (inactive) | – | – | – | – | – | > 100 µM (inactive) | –
14 | COc1ccc(-c2c3ccccc3c(-c3ccc(OCCCCCBr)cc3)c3ccccc23)cc1 | – | > 100 µM (inactive) | – | – | – | – | > 100 µM (inactive) | > 100 µM (inactive) | –
15 | O=C(N/N=C\c1cccc2ccccc12)Nc1ccccc1 | > 100 µM (inactive) | > 100 µM (inactive) | > 100 µM (inactive) | > 100 µM (inactive) | > 100 µM (inactive) | – | – | – | –
16 | CN(C)[C@@H]1C(O)=C(C(=O)NCN2CCN(C(=N)NC(=N)N)CC2)C(=O)[C@@]2(O)C(O)=C3C(=O)c4c(O)cccc4[C@@](C)(O)[C@H]3C[C@@H]12 | – | 0.279 µM (active) | – | – | – | – | – | 0.0857 µM (active) | 0.166 µM (active)
17 | Cc1ccc(S(=O)(=O)NCCCSCCSCCCN)cc1 | – | > 100 µM (inactive) | > 100 µM (inactive) | > 100 µM (inactive) | > 100 µM (inactive) | – | – | – | –
18 | O=C1CCC(c2ccc(Cl)cc2)=NN1c1nsc2ccccc12 | – | > 10 µM (inactive) | – | – | – | – | 27.9 µM (inactive) | 26.8 µM (inactive) | –
19 | CCOC(=O)c1c(-c2ccc(Cl)cc2)c(C#N)c(=S)n(C2OC(CO)C(O)C(O)C2O)c1-c1ccccc1 (stereo not given) | 29.4 µM (inactive) | 19.7 µM (inactive) | 22.3 µM (inactive) | 21.3 µM (inactive) | 23 µM (inactive) | 26.7 µM (inactive) | – | – | –
20 | CCC1(C)C=Cc2c(cc(O)c3c(=O)c4ccccc4n(C)c23)O1 (stereo not given) | > 10 µM (inactive) | > 10 µM (inactive) | > 10 µM (inactive) | > 10 µM (inactive) | > 10 µM (inactive) | > 10 µM (inactive) | – | – | –
21 | Nc1cc[nH]c(=O)n1 | – | > 100 µM (inactive) | – | – | – | > 100 µM (inactive) | > 100 µM (inactive) | > 100 µM (inactive) | > 100 µM (inactive)
22 | CCCOC1OC(CS(=O)(=O)O)C(OC(C)=O)C(OC(C)=O)C1OC(C)=O (stereo not given) | > 100 µM (inactive) | > 100 µM (inactive) | > 100 µM (inactive) | > 100 µM (inactive) | > 100 µM (inactive) | – | – | – | –
23 | Cc1c2cc[n+](C)cc2c(C)c2c1[nH]c1ccccc12 | – | – | 3.08 µM (inactive) | – | – | – | 0.275 µM (active) | – | –
24 | CCCCCCc1ccc(O)cc1O [HEXYLRESORCINOL] | – | – | 81.1 µM (inactive) | – | – | – | – | – | –
25 | O=C1CNC(=O)N1 [HYDANTOIN] | – | – | > 1120 µM (inactive) | – | – | – | > 1120 µM (inactive) | – | –
26 | C=CCN1C[C@H](C)N([C@H](c2ccc(C(=O)N(CC)CC)cc2)c2cccc(OC)c2)C[C@H]1C [SNC-80] | 41.1 µM (inactive) | 33.7 µM (inactive) | 39.1 µM (inactive) | 34.7 µM (inactive) | 53.1 µM (inactive) | > 100 µM (inactive) | – | – | –
27 | CC(=O)CC(=O)CCC(=O)O [SUCCINYLACETONE] | – | > 100 µM (inactive) | – | – | – | – | > 100 µM (inactive) | – | –
